From US20240376056A1, “PHENYL ACETAMIDE BASED IL-17A MODULATORS AND USES THEREOF” (DiCE Alpha, Inc., priority 2021, published 2024)

Target: T1, IL-17A/A (Homo sapiens, UniProt Q16552)
T1 construct: purchased Genscript Z03228
T1 sequence (Q16552 24-155): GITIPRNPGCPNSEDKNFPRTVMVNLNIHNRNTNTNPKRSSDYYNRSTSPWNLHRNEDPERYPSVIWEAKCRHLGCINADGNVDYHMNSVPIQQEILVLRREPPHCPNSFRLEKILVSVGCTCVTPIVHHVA
Assay: HEK-Blue IL-17A/A inhibition assay (SEAP reporter)
Format: cell-based
Conditions: HEK-Blue cells (HEK 293 expressing IL-17RA, IL-17RC, Act1); IL-17A/A stimulation; 20 hours; SEAP read at A630; 4-parameter fit
Summary of the method: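 IC50 from a 4-parameter fit of SEAP signal (Quanti-Blue, A630) after 20 h co-incubation of compound and IL-17A/A. Reporter line: HEK 293 expressing IL-17RA, IL-17RC and Act1 with NFκB-SEAP; compound top final 10, 1 or 0.3 uM, DMSO 0.1% final.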

SMILES | IC50 [µM]
CC(C)n1nccc1C(=O)N[C@H](C(=O)Nc1ccc([C@H](C)C(=O)NC(C2CC2)C(F)(F)F)cc1F)C(C1CC1)C1CC1 (stereo partly drawn) [Compound 26, N-((2S)-1,1-dicyclopropyl-3-((4-((2S)-1-((1-cyclopropyl-2,2,2-trifluoroethyl)amino)-1-oxopropan-2-yl)-2-fluorophenyl)amino)-3-oxopropan-2-yl)-1-isopropyl-1H-pyrazole-5-carboxamide] | 0.1 to 1
CC(C)n1nccc1C(=O)N[C@H](C(=O)Nc1ccc([C@H](C)C(=O)NC(Cc2ccccn2)C(F)(F)F)cc1F)C(C1CC1)C1CC1 (stereo partly drawn) [Compound 27, N-((2S)-1,1-dicyclopropyl-3-((2-fluoro-4-((2S)-1-oxo-1-((1,1,1-trifluoro-3-(pyridin-2-yl)propan-2-yl)amino)propan-2-yl)phenyl)amino)-3-oxopropan-2-yl)-1-isopropyl-1H-pyrazole-5-carboxamide] | > 1
CC(C)n1nccc1C(=O)N[C@H](C(=O)Nc1ccc([C@H](C)C(=O)N2CCC(F)(F)C2)cc1F)C(C1CC1)C1CC1 [Compound 30] | 0.1 to 1
CC(C)n1nccc1C(=O)N[C@H](C(=O)Nc1ccc([C@H](C)C(=O)N2C[C@@H](O)[C@@H](F)C2)cc1F)C(C1CC1)C1CC1 [Compound 31, N-((S)-1.1-dicyclopropyl-3-((2-fluoro-4-((S)-1-((3S,4R)-3-fluoro-4-hydroxypyrrolidin-1-yl)-1-oxopropan-2-yl)phenyl)amino)-3-oxopropan-2-yl)-1-isopropyl-1H-pyrazole-5-carboxamide] | > 1
CC(C)n1nccc1C(=O)N[C@H](C(=O)Nc1ccc([C@H](C)C(=O)NCC(N(C)C)C(F)(F)F)cc1F)C(C1CC1)C1CC1 (stereo partly drawn) [Compound 32, N-((2S)-1.1-dicyclopropyl-3-((4-((2S)-1-((2-(dimethylamino)-3,3,3-trifluoropropyl)amino)-1-oxopropan-2-yl)-2-fluorophenyl)amino)-3-oxopropan-2-yl)-1-isopropyl-1H-pyrazole-5-carboxamide] | > 1
CC(C)n1nccc1C(=O)N[C@H](C(=O)Nc1ccc([C@H](C)C(=O)N2CC(F)(CO)C2)cc1F)C(C1CC1)C1CC1 [Compound 33, N-((S)-1,1-dicyclopropyl-3-((2-fluoro-4-((S)-1-(3-fluoro-3-(hydroxymethyl)azetidin-1-yl)-1-oxopropan-2-yl)phenyl)amino)-3-oxopropan-2-yl)-1-isopropyl-1H-pyrazole-5-carboxamide] | > 1
CC(C)n1nccc1C(=O)N[C@H](C(=O)Nc1ccc([C@H](C)C(=O)NCCF)cc1F)C(C1CC1)C1CC1 [Compound 34, N-((S)-1,1-dicyclopropyl-3-((2-fluoro-4-((S)-1-((2-fluoroethyl)amino)-1-oxopropan-2-yl)phenyl)amino)-3-oxopropan-2-yl)-1-isopropyl-1H-pyrazole-5-carboxamide] | 0.1 to 1
CC(C)n1nccc1C(=O)N[C@H](C(=O)Nc1ccc([C@H](C)C(=O)NCC(F)(F)CNC(=O)OC(C)(C)C)cc1F)C(C1CC1)C1CC1 [Compound 35, tert-butyl (3-((S)-2-(4-((S)-3,3-dicyclopropyl-2-(1-isopropyl-1H-pyrazole-5-carboxamido)propanamido)-3-fluorophenyl)propanamido)-2,2-difluoropropyl)carbamate] | > 1
CC(C)n1nccc1C(=O)N[C@H](C(=O)Nc1ccc([C@H](C)C(=O)NCc2ccccc2C(F)(F)F)cc1F)C(C1CC1)C1CC1 [Compound 36, N-((S)-1.1-dicyclopropyl-3-((2-fluoro-4-((S)-1-oxo-1-((2-(trifluoromethyl)benzyl)amino)propan-2-yl)phenyl)amino)-3-oxopropan-2-yl)-1-isopropyl-1H-pyrazole-5-carboxamide] | > 1
CC(C)n1nccc1C(=O)N[C@H](C(=O)Nc1ccc([C@H](C)C(=O)N2CC3(C2)CC(F)(F)C3)cc1F)C(C1CC1)C1CC1 [Compound 37] | > 1
CC(C)n1nccc1C(=O)N[C@H](C(=O)Nc1ccc([C@H](C)C(=O)N2C[C@H](F)[C@@H](F)C2)cc1F)C(C1CC1)C1CC1 [Compound 38, N-((S)-1,1-dicyclopropyl-3-((4-((S)-1-((3S,4S)-3,4-difluoropyrrolidin-1-yl)-1-oxopropan-2-yl)-2-fluorophenyl)amino)-3-oxopropan-2-yl)-1-isopropyl-1H-pyrazole-5-carboxamide] | 0.1 to 1
CC(C)n1nccc1C(=O)N[C@H](C(=O)Nc1ccc([C@H](C)C(=O)N2CCN(C(=O)OC(C)(C)C)CC2C(F)(F)F)cc1F)C(C1CC1)C1CC1 (stereo partly drawn) [Compound 39, tert-butyl 4-((S)-2-(4-((S)-3,3-dicyclopropyl-2-(1-isopropyl-1H-pyrazole-5-carboxamido)propanamido)-3-fluorophenyl)propanoyl)-3-(trifluoromethyl)piperazine-1-carboxylate] | > 1
CC(C)n1nccc1C(=O)N[C@H](C(=O)Nc1ccc([C@H](C)C(=O)N2C[C@@H](F)[C@@H](F)C2)cc1F)C(C1CC1)C1CC1 [Compound 40, N-((S)-1,1-dicyclopropyl-3-((4-((S)-1-((3S,4R)-3,4-difluoropyrrolidin-1-yl)-1-oxopropan-2-yl)-2-fluorophenyl)amino)-3-oxopropan-2-yl)-1-isopropyl-1H-pyrazole-5-carboxamide] | 0.1 to 1
CC(C)n1nccc1C(=O)N[C@H](C(=O)Nc1ccc([C@H](C)C(=O)NC(c2ccccn2)C(F)(F)F)cc1F)C(C1CC1)C1CC1 (stereo partly drawn) [Compound 41, N-((2S)-1,1-dicyclopropyl-3-((2-fluoro-4-((2S)-1-oxo-1-((2,2,2-trifluoro-1-(pyridin-2-yl)ethyl)amino)propan-2-yl)phenyl)amino)-3-oxopropan-2-yl)-1-isopropyl-1 H-pyrazole-5-carboxamide] | 0.1 to 1
CC(C)n1nccc1C(=O)N[C@H](C(=O)Nc1ccc([C@H](C)C(=O)N(CC(F)(F)F)CC(F)(F)F)cc1F)C(C1CC1)C1CC1 [Compound 42, N-((S)-1-((4-((S)-1-(bis(2,2,2-trifluoroethyl)amino)-1-oxopropan-2-yl)-2-fluorophenyl)amino)-3,3-dicyclopropyl-1-oxopropan-2-yl)-1-isopropyl-1H-pyrazole-5-carboxamide] | 0.1 to 1

Now from value to molecule:

IC50 [µM] | SMILES
> 1 | CC(C)n1nccc1C(=O)N[C@H](C(=O)Nc1ccc([C@H](C)C(=O)NC2(C(F)(F)F)COC2)cc1F)C(C1CC1)C1CC1 [Compound 43, N-((S)-1.1-dicyclopropyl-3-((2-fluoro-4-((S)-1-oxo-1-((3-(trifluoromethyl)oxetan-3-yl)amino)propan-2-yl)phenyl)amino)-3-oxopropan-2-yl)-1-isopropyl-1H-pyrazole-5-carboxamide]
0.1 to 1 | CC(C)n1nccc1C(=O)N[C@H](C(=O)Nc1ccc([C@H](C)C(=O)NCC(F)(F)C(F)(F)F)cc1F)C(C1CC1)C1CC1 [Compound 44, N-((S)-1,1-dicyclopropyl-3-((2-fluoro-4-((S)-1-oxo-1-((2,2,3,3,3-pentafluoropropyl)amino)propan-2-yl)phenyl)amino)-3-oxopropan-2-yl)-1-isopropyl-1H-pyrazole-5-carboxamide]
0.1 to 1 | CC(C)n1nccc1C(=O)N[C@H](C(=O)Nc1ccc([C@H](C)C(=O)N2CCOCCC2C(F)(F)F)cc1F)C(C1CC1)C1CC1 (stereo partly drawn) [Compound 45, N-((2S)-1,1-dicyclopropyl-3-((2-fluoro-4-((2S)-1-oxo-1-(5-(trifluoromethyl)-1,4-oxazepan-4-yl)propan-2-yl)phenyl)amino)-3-oxopropan-2-yl)-1-isopropyl-1H-pyrazole-5-carboxamide]
> 1 | CC(C)n1nccc1C(=O)N[C@H](C(=O)Nc1ccc([C@H](C)C(=O)NC2(C(F)(F)F)CN(C(=O)OC(C)(C)C)C2)cc1F)C(C1CC1)C1CC1 [Compound 46, tert-butyl 3-((S)-2-(4-((S)-3,3-dicyclopropyl-2-(1-isopropyl-1H-pyrazole-5-carboxamido)propanamido)-3-fluorophenyl)propanamido)-3-(trifluoromethyl)azetidine-1-carboxylate]
< 0.1 | CC(C)n1nccc1C(=O)N[C@H](C(=O)Nc1ccc([C@H](C)C(=O)N2CC(F)CC2C(F)(F)F)cc1F)C(C1CC1)C1CC1 (stereo partly drawn) [Compound 47, N-((2S)-1,1-dicyclopropyl-3-((2-fluoro-4-((2S)-1-(4-fluoro-2-(trifluoromethyl)pyrrolidin-1-yl)-1-oxopropan-2-yl)phenyl)amino)-3-oxopropan-2-yl)-1-isopropyl-1H-pyrazole-5-carboxamide]
0.1 to 1 | CC(C)n1nccc1C(=O)N[C@H](C(=O)Nc1ccc([C@H](C)C(=O)NCC(F)(F)F)cc1F)C1CCC(F)(F)CC1 [Compound 50, N-((S)-1-(4,4-difluorocyclohexyl)-2-((2-fluoro-4-((S)-1-oxo-1-((2,2,2-trifluoroethyl)amino)propan-2-yl)phenyl)amino)-2-oxoethyl)-1-isopropyl-1H-pyrazole-5-carboxamide]
0.1 to 1 | CC(C)n1nccc1C(=O)N[C@H](C(=O)Nc1ccc([C@H](C)C(=O)N(C)CC(F)(F)F)cc1F)C1CCC(F)(F)CC1 [Compound 51, N-((S)-1-(4,4-difluorocyclohexyl)-2-((2-fluoro-4-((S)-1-(methyl(2,2,2-trifluoroethyl)amino)-1-oxopropan-2-yl)phenyl)amino)-2-oxoethyl)-1-isopropyl-1H-pyrazole-5-carboxamide]
> 1 | CC(C)n1nccc1C(=O)N[C@H](C(=O)Nc1ccc([C@H](C)C(=O)NC2(C(F)(F)F)CNC2)cc1F)C(C1CC1)C1CC1 [Compound 52, N-((S)-1.1-dicyclopropyl-3-((2-fluoro-4-((S)-1-oxo-1-((3-(trifluoromethyl)azetidin-3-yl)amino)propan-2-yl)phenyl)amino)-3-oxopropan-2-yl)-1-isopropyl-1H-pyrazole-5-carboxamide]
